Data from patent US8921360B2, “Heterobicycle-substituted azolyl benzene fungicides” (priority 2009, dated 2014).

Tests used:
Format in all cases: in vivo
[1] = system: Erysiphe graminis f. sp. tritici; assay: Test A: wheat powdery mildew, preventive spray on wheat seedlings; details: 200 ppm; wheat seedlings sprayed to run-off, inoculated next day, rated after 8 days; 100 = 100% disease control, 0 = no control
Text: General protocol for preparing test suspensions for Tests A-G: the test compounds were first dissolved in acetone in an amount equal to 11% of the final volume and then suspended at the desired concentration (in ppm) in acetone and purified water (50/50 mix by volume) containing 250 ppm of the surfactant Trem® 014 (polyhydric alcohol esters). The resulting test suspensions were then used in Tests A-G. Spraying a 200 ppm test suspension to the point of run-off on the test plants was the equivalent of a rate of 800 g/ha. The test suspension was sprayed to the point of run-off on wheat seedlings. The following day the seedlings were inoculated with a spore dust of Erysiphe graminis f. sp. tritici, (the causal agent of wheat powdery mildew) and incubated in a growth chamber at 20° C. for 8 days, after which time disease ratings were visually made. Results for Tests A-G are given in Table A. In the Table, a rating of 100 indicates 100% disease control and a rating of 0 indicates no disease control (relative to the controls). A dash (-) indicates no test results. All results are for 200 ppm except where followed by an “*”, which indicates 40 ppm.

[2] = system: Puccinia recondita f sp. tritici; assay: Test B: wheat leaf rust, preventive spray on wheat seedlings; details: 200 ppm; wheat seedlings sprayed to run-off, inoculated next day, rated after 24 h + 7 days
Text: General protocol for preparing test suspensions for Tests A-G: the test compounds were first dissolved in acetone in an amount equal to 11% of the final volume and then suspended at the desired concentration (in ppm) in acetone and purified water (50/50 mix by volume) containing 250 ppm of the surfactant Trem® 014 (polyhydric alcohol esters). The resulting test suspensions were then used in Tests A-G. Spraying a 200 ppm test suspension to the point of run-off on the test plants was the equivalent of a rate of 800 g/ha. The test suspension was sprayed to the point of run-off on wheat seedlings. The following day the seedlings were inoculated with a spore suspension of Puccinia recondita f sp. tritici (the causal agent of wheat leaf rust) and incubated in a saturated atmosphere at 20° C. for 24 h, and then moved to a growth chamber at 20° C. for 7 days, after which time disease ratings were visually made. Results for Tests A-G are given in Table A. In the Table, a rating of 100 indicates 100% disease control and a rating of 0 indicates no disease control (relative to the controls). A dash (-) indicates no test results. All results are for 200 ppm except where followed by an “*”, which indicates 40 ppm.

[3] = system: Puccinia recondita f. sp. tritici; assay: Test C: wheat leaf rust, spray the day after inoculation of wheat seedlings; details: 200 ppm; wheat seedlings inoculated, sprayed the following day, rated after 5 days;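 also: Curative spray on infected wheat seedlings with visual rating 5 days later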
Text: General protocol for preparing test suspensions for Tests A-G: the test compounds were first dissolved in acetone in an amount equal to 11% of the final volume and then suspended at the desired concentration (in ppm) in acetone and purified water (50/50 mix by volume) containing 250 ppm of the surfactant Trem® 014 (polyhydric alcohol esters). The resulting test suspensions were then used in Tests A-G. Spraying a 200 ppm test suspension to the point of run-off on the test plants was the equivalent of a rate of 800 g/ha. Wheat seedlings were inoculated with a spore suspension of Puccinia recondita f. sp. tritici (the causal agent of wheat leaf rust) and incubated in a saturated atmosphere at 20° C. for 24 h. The following day, the test suspension was sprayed to the point of run-off on the wheat seedlings and then moved to a growth chamber at 20° C. for 5 days, after which time disease ratings were visually made. Results for Tests A-G are given in Table A. In the Table, a rating of 100 indicates 100% disease control and a rating of 0 indicates no disease control (relative to the controls). A dash (-) indicates no test results. All results are for 200 ppm except where followed by an “*”, which indicates 40 ppm.

Septoria nodorum = assay: Test D: wheat glume blotch, preventive spray on wheat seedlings; details: 200 ppm; wheat seedlings sprayed to run-off, inoculated next day, rated after 48 h + 7 days
Text: General protocol for preparing test suspensions for Tests A-G: the test compounds were first dissolved in acetone in an amount equal to 11% of the final volume and then suspended at the desired concentration (in ppm) in acetone and purified water (50/50 mix by volume) containing 250 ppm of the surfactant Trem® 014 (polyhydric alcohol esters). The resulting test suspensions were then used in Tests A-G. Spraying a 200 ppm test suspension to the point of run-off on the test plants was the equivalent of a rate of 800 g/ha. The test suspension was sprayed to the point of run-off on wheat seedlings. The following day the seedlings were inoculated with a spore suspension of Septoria nodorum (the causal agent of wheat glume blotch) and incubated in a saturated atmosphere at 20° C. for 48 h, and then moved to a growth chamber at 20° C. for 7 days, after which time disease ratings were visually made. Results for Tests A-G are given in Table A. In the Table, a rating of 100 indicates 100% disease control and a rating of 0 indicates no disease control (relative to the controls). A dash (-) indicates no test results. All results are for 200 ppm except where followed by an “*”, which indicates 40 ppm.

Septoria tritici = assay: Test E: wheat leaf blotch, preventive spray on wheat seedlings; details: 200 ppm; wheat seedlings sprayed to run-off, inoculated next day, rated after 48 h + 19 days
Text: General protocol for preparing test suspensions for Tests A-G: the test compounds were first dissolved in acetone in an amount equal to 11% of the final volume and then suspended at the desired concentration (in ppm) in acetone and purified water (50/50 mix by volume) containing 250 ppm of the surfactant Trem® 014 (polyhydric alcohol esters). The resulting test suspensions were then used in Tests A-G. Spraying a 200 ppm test suspension to the point of run-off on the test plants was the equivalent of a rate of 800 g/ha. The test suspension was sprayed to the point of run-off on wheat seedlings. The following day the seedlings were inoculated with a spore suspension of Septoria tritici (the causal agent of wheat leaf blotch) and incubated in a saturated atmosphere at 24° C. for 48 h, and then moved to a growth chamber at 20° C. for 19 days, after which time disease ratings were visually made. Results for Tests A-G are given in Table A. In the Table, a rating of 100 indicates 100% disease control and a rating of 0 indicates no disease control (relative to the controls). A dash (-) indicates no test results. All results are for 200 ppm except where followed by an “*”, which indicates 40 ppm.

Botrytis cinerea = assay: Test F: tomato botrytis, preventive spray on tomato seedlings; details: 200 ppm; tomato seedlings sprayed to run-off, inoculated next day, rated after 48 h + 3 days
Text: General protocol for preparing test suspensions for Tests A-G: the test compounds were first dissolved in acetone in an amount equal to 11% of the final volume and then suspended at the desired concentration (in ppm) in acetone and purified water (50/50 mix by volume) containing 250 ppm of the surfactant Trem® 014 (polyhydric alcohol esters). The resulting test suspensions were then used in Tests A-G. Spraying a 200 ppm test suspension to the point of run-off on the test plants was the equivalent of a rate of 800 g/ha. The test suspension was sprayed to the point of run-off on tomato seedlings. The following day the seedlings were inoculated with a spore suspension of Botrytis cinerea (the causal agent of tomato botrytis) and incubated in saturated atmosphere at 20° C. for 48 h, and then moved to a growth chamber at 27° C. for 3 additional days, after which time disease ratings were visually made. Results for Tests A-G are given in Table A. In the Table, a rating of 100 indicates 100% disease control and a rating of 0 indicates no disease control (relative to the controls). A dash (-) indicates no test results. All results are for 200 ppm except where followed by an “*”, which indicates 40 ppm.

Alternaria solani = assay: Test G: tomato early blight, preventive spray on tomato seedlings; details: 200 ppm; tomato seedlings sprayed to run-off, inoculated next day, rated after 48 h + 5 days
Text: General protocol for preparing test suspensions for Tests A-G: the test compounds were first dissolved in acetone in an amount equal to 11% of the final volume and then suspended at the desired concentration (in ppm) in acetone and purified water (50/50 mix by volume) containing 250 ppm of the surfactant Trem® 014 (polyhydric alcohol esters). The resulting test suspensions were then used in Tests A-G. Spraying a 200 ppm test suspension to the point of run-off on the test plants was the equivalent of a rate of 800 g/ha. The test suspension was sprayed to the point of run-off on tomato seedlings. The following day the seedlings were inoculated with a spore suspension of Alternaria solani (the causal agent of tomato early blight) and incubated in a saturated atmosphere at 27° C. for 48 h, and then moved to a growth chamber at 24° C. for 5 days, after which time disease ratings were visually made. Results for Tests A-G are given in Table A. In the Table, a rating of 100 indicates 100% disease control and a rating of 0 indicates no disease control (relative to the controls). A dash (-) indicates no test results. All results are for 200 ppm except where followed by an “*”, which indicates 40 ppm.

Row | Compound | Percentage Disease Control Test A [1] [%] | Percentage Disease Control Test B [2] [%] | Percentage Disease Control Test C [3] [%] | Percentage Disease Control Test D (Septoria nodorum) [%] | Percentage Disease Control Test E (Septoria tritici) [%] | Percentage Disease Control Test F (Botrytis cinerea) [%] | Percentage Disease Control Test G (Alternaria solani) [%]
1 | COC(=O)NCc1cc(-n2ccc(-c3ccc4c(c3)C(=O)CCO4)n2)ccc1F [Compound 18] | 90 | 100 | 74 | 99 | 97 | 79 | 50
2 | COC(=O)NCc1cc(-n2ccc(-c3ccc4c(c3)OCCO4)n2)ccc1F [Compound 10] | 100 | 100 | 100 | 100 | 98 | 94 | 84
3 | COC(=O)NCc1cc(-n2ccc(-c3ccc4c(c3)OCCO4)n2)ccc1C [Compound 26] | 100 | 100 | 100 | 100 | 99 | 33 | 9
4 | COC(=O)NCc1cc(-n2ccc(-c3ccc4c(c3)NCCO4)n2)ccc1F [Compound 15] | 0 | 100 | 38 | 100 | 99 | 80 | 12
